According to US5773646A, “Meta-substituted phenylene derivatives” (G. D. Searle & Co., priority 1997, dated 1998):
Counter-ions that a name gives are not always drawn.

Assays:
[1] = molecular target: T1, Human vitronectin receptor (αv β3) (Homo sapiens, UniProt P05106+P06756); experiment: Vitronectin adhesion assay (solid phase receptor assay, biotinylated vitronectin competition); format: binding; settings: inhibition of 50% of the maximum binding of biotinylated vitronectin; 1 nM labeled ligand, 2 hours, room temperature, highest concentration of test compound 1.0×10^-4 M; read-out: AvB3 IC50
T1 construct: Human vitronectin receptor(αv β3) was purified from human placenta; from tissue; host or cells: human placenta
Procedure: VITRONECTIN ADHESION ASSAY Human vitronectin receptor(αv β3) was purified from human placenta as previously described [Pytela et al., Methods in Enzymology, 144:475-489 (1987)). Human vitronectin was purified from fresh frozen plasma as previously described [Yatohgo et al., Cell Structure and Function, 13:281-292 (1988)]. Biotinylated human vitronectin was prepared by coupling NHS-biotin from Pierce Chemical Company (Rockford, Ill.) to purified vitronectin as previously described [Charo et al., J. Biol. Chem., 266(3):1415-1421 (1991)]. Assay buffer, OPD substrate tablets, and RIA grade BSA were obtained from Sigma (St. Louis, Mo.). Anti-biotin antibody was obtained from Calbiochem (La Jolla, Calif.). Linbro microtiter plates were obtained from Flow Labs (McLean, Va.). ADP reagent was obtained from Sigma (St. Louis, Mo.). Solid Phase Receptor Assays This assay was essentially the same as previously reported [Niiya et al., Blood, 70:475-483 (1987)]. The purified human vitronectin receptor (αv β3) was diluted from stock solutions to 1.0 μg/mL in Tris-buffered saline containing 1.0 mM Ca^++, Mg^++, and Mn^++, pH 7.4 (TBS^+++). The diluted receptor was immediately transferred to Linbro microtiter plates at 100 μL/well (100 ng receptor/well). The plates were sealed and incubated overnight at 4° C. to allow the receptor to bind to the wells. All remaining steps were at room temperature. The assay plates were emptied and 200 μL of 1% RIA grade BSA in TBS^+++ (TBS^+++ /BSA) were added to block exposed plastic surfaces. Following a 2 hour incubation, the assay plates were washed with TBS^+++ using a 96 well plate washer. Logarithmic serial dilution of the test compound and controls were made starting at a stock concentration of 2 mM and using 2 nM biotinylated vitronectin in TBS^+++ /BSA as the diluent. This premixing of labeled ligand with test (or control) ligand, and subsequent transfer of 50 μL aliquots to the assay plate was carried out with a CETUS Propette robot; the final concentration of the labeled ligand was 1 nM and the highest concentration of test compound was 1.0×10^-4 M. The competition occurred for two hours after which all wells were washed with a plate washer as before. Affinity purified horseradish peroxidase labeled goat antibiotin antibody was diluted 1:3000 in TBS^+++ /BSA and 125 μL were added to each well. After 30 minutes, the plates were washed and incubated with OPD/H2 O2 substrate in 100 mM/L Citrate buffer, pH 5.0. The plate was read with a microtiter plate reader at a wavelength of 450 nm and when the maximum-binding control wells reached an absorbance of about 1.0, the final A450 were recorded for analysis. The data were analyzed using a macro written for use with the EXCEL™ spreadsheet program. The mean, standard deviation, and %CV were determined for duplicate concentrations. The mean A450 values were normalized to the mean of four maximum-binding controls (no competitor added)(B-MAX). The normalized values were subjected to a four parameter curve fit algorithm [Rodbard et al., Int.

[2] = molecular target: T2, Human fibrinogen receptor (αIIb β3) (Homo sapiens, UniProt P05106+P08514); experiment: Purified IIb/IIIa receptor assay (solid phase receptor assay, biotinylated vitronectin competition); settings: inhibition of 50% of the maximum binding of biotinylated vitronectin; 1 nM labeled ligand, 2 hours, room temperature, highest concentration of test compound 1.0×10^-4 M
T2 construct: Human fibrinogen receptor (αIIb β3) was purified from outdated platelets; from tissue; host or cells: outdated human platelets
From the text: PURIFIED IIb/IIIa RECEPTOR ASSAY Human fibrinogen receptor (αIIb β3) was purified from outdated platelets. (Pytela, R., Pierschbacher, […]., Suzuki, S., and […] acid adhesion receptors", Methods in Enzymology 144(1987):475-489.) Human vitronectin was purified from fresh frozen plasma as described in Yatohgo, T., Izumi, M., Kashiwagi, H., and Hayashi, M., "Novel purification of vitronectin from human plasma by heparin affinity chromatography," Cell Structure and Function 13(1988):281-292. Biotinylated human vitronectin was prepared by coupling NHS-biotin from Pierce Chemical Company (Rockford, Ill.) to purified vitronectin as previously described. (Charo, […]., Phillips, D. R., Hsu, M. A., Scarborough, R. M., "Inhibition of fibrinogen binding to GP IIb/IIIa by a GP IIIa peptide", J. Biol. Chem. 266(3)(1991):1415-1421.) Assay buffer, OPD substrate tablets, and RIA grade BSA were obtained from Sigma (St. Louis, Mo.). Anti-biotin antibody was obtained from Calbiochem (La Jolla, Calif.). Linbro microtiter plates were obtained from Flow Labs (McLean, Va.). ADP reagent was obtained from Sigma (St. Louis, Mo.). Solid Phase Receptor Assays This assay is essentially the same reported in […]., Bader, R., Byers-Ward, […]., Plow, E. F. and Ruggeri, Z. M., "Increased surface expression of the membrane glycoprotein IIb/IIIa complex induced by platelet activation: Relationships to the binding of fibrinogen and platelet aggregation", Blood 70(1987):475-483. The purified human fibrinogen receptor (αIIb β3) was diluted from stock solutions to 1.0 μg/mL in Tris-buffered saline containing 1.0 mM Ca^++, Mg^++, and Mn^++, pH 7.4 (TBS^+++). The diluted receptor was immediately transferred to Linbro microtiter plates at 100 μL/well (100 ng receptor/well). The plates were sealed and incubated overnight at 4° C. to allow the receptor to bind to the wells. All remaining steps were at room temperature. The assay plates were emptied and 200 μL of 1% RIA grade BSA in TBS^+++ (TBS^+++ /BSA) were added to block exposed plastic surfaces. Following a 2 hour incubation, the assay plates were washed with TBS^+++ using a 96 well plate washer. Logarithmic serial dilution of the test compound and controls were made starting at a stock concentration of 2 mM and using 2 nM biotinylated vitronectin in TBS^+++ /BSA as the diluent. This premixing of labeled ligand with test (or control) ligand, and subsequent transfer of 50 μL aliquots to the assay plate was carried out with a CETUS Propette robot; the final concentration of the labeled ligand was 1 nM and the highest concentration of test compound was 1.0×10^-4 M. The competition occurred for two hours after which all wells were washed with a plate washer as before. Affinity purified horseradish peroxidase labeled goat antibiotin antibody was diluted 1:3000 in TBS^+++ /BSA and 125 μL were added to each well. After 30 minutes, the plates were washed and incubated with […]/H2 O2 substrate in 100 mM/L citrate buffer, pH 5.0. The plate was read with a microtiter plate reader at a wavelength of 450 nm and when the maximum-binding control wells reached an absorbance of about 1.0, the final A450 were recorded for analysis. The data were analyzed using a macro written for use with the EXCELTM spreadsheet program. The mean, standard deviation, and %CV were determined for duplicate concentrations. The mean A450 values were normalized to the mean of four maximum-binding controls (no competitor added)(B-MAX). The normalized values were subjected to a four parameter curve fit algorithm, [Robard et al., Int.

N=C(N)Nc1cccc(S(=O)(=O)Nc2cccc(C(CC(=O)O)c3c(F)c(F)c(F)c(F)c3F)c2)c1 (stereo not drawn) [Example 81, β-[3-[[[3-[(aminoiminomethyl)amino]phenyl]sulfonyl]amino]phenyl]perfluorobenzenepropanoic Acid, Trifluoroacetate Salt]
IC50 [1]: 0.086 µM
IC50 [2]: 2.55 µM

N=C(N)Nc1cccc([S+]([O-])Cc2cccc(C(CC(=O)O)c3ccccc3)c2)c1 (stereo not drawn) [Example 88, 3-[[[3-[(aminoiminomethyl)amino]phenyl]sulfinyl]methyl]-β-phenylbenzenepropanoic Acid, Trifluoroacetate Salt]
IC50 [1]: 0.0196 µM
IC50 [2]: 0.87 µM

N=C(N)Nc1cccc(SCc2cccc(C(CC(=O)O)c3ccccc3)c2)c1 (stereo not drawn) [Example 87, 3-[[3-[(aminoiminomethyl)amino]phenylthio]methyl]-β-phenylbenzenepropanoic Acid, Trifluoroacetate Salt]
IC50 [1]: 0.0512 µM
IC50 [2]: 3.3 µM

NC(=O)Nc1cccc(C(=O)NCc2cccc(CCC(=O)O)c2)c1 [Example 29, 3-[[[[3-[(aminocarbonyl)amino]phenyl]carbonyl]amino]methyl]benzenepropanoic acid]
IC50 [1]: 9.37 µM
IC50 [2]: 32 µM

N=C(N)Nc1cccc(C(=O)NCc2cccc(CCC(=O)O)c2)c1 [Example 35, 3-[[[[3-[(aminoiminomethyl)amino]phenyl]carbonyl]amino]methyl]benzenepropanoic acid, trifluoroacetate salt]
IC50 [1]: 0.183 µM
IC50 [2]: 6.08 µM

CCOC(=O)CC(CC)c1cccc(CNC(=O)c2cccc(NC(=N)N)c2)c1 (stereo not drawn) [Example 41, ethyl 3-[[[[3-[(aminoiminomethyl)amino]phenyl]carbonyl]amino]methyl)-β-ethylbenzenepropanoate, trifluoroacetate salt]
IC50 [1]: 11.3 µM
IC50 [2]: > 100 µM

CCC(CC(=O)O)c1cccc(NS(=O)(=O)c2cccc(NC(N)=NC(N)=O)c2)c1 (stereo not drawn) [Example 95, 3-[[[3-[[amino[(aminocarbonyl)imino]methyl]amino]phenyl]sulfonyl]amino]-β-ethylbenzenepropanoic Acid, Trifluoroacetate Salt]
IC50 [1]: 0.0357 µM
IC50 [2]: 8.45 µM

N=C(N)Nc1cccc(S(=O)(=O)Nc2cccc(C(CC(=O)O)c3cc(Cl)cc(Cl)c3)c2)c1 (stereo not drawn) [Example 77, β-[3-[[[3-[(aminoiminomethyl)amino]phenyl]sulfonyl]amino]phenyl]-3,5-dichlorobenzene Propanoic Acid, Trifluoroacetate Salt]
IC50 [1]: 0.0325 µM
IC50 [2]: 5.82 µM

CC(C)(C)OC(=O)CC(c1ccccc1)c1cccc(NS(=O)(=O)c2cccc(NC(N)=NC#N)c2)c1 (centres unmarked) [Example 15]
IC50 [1]: 0.0404 µM
IC50 [2]: 1.36 µM

COc1ccc2[nH]c(Nc3cccc(C(=O)NCc4cccc(C(C)CC(=O)O)c4)c3)nc2c1 (racemic) [Example 70, (±) 3-[[[[3-[(5-methoxy-1H-benzimidazol-2-yl)amino]phenyl]carbonyl]amino]methyl]-β-methyl benzenepropanoic acid, trifluoroacetate salt]
IC50 [1]: 1.71 µM
IC50 [2]: 7.66 µM

N=C(N)Nc1cccc(C(=O)Nc2cccc(C(CC(=O)O)c3ccccc3)c2)c1 (stereo not drawn) [Example 2, 3-[[[3-[(aminoiminomethyl)amino]phenyl]carbonyl]amino]-β-phenylbenzenepropanoic acid, trifluoroacetate salt]
IC50 [1]: 0.499 µM
IC50 [2]: 3.76 µM

N=C(N)Nc1cccc(S(=O)(=O)Nc2cccc(C(CC(=O)O)c3cc(F)c(F)c(F)c3)c2)c1 (stereo not drawn) [Example 80, β-[3-[[[3-[(aminoiminomethyl)amino]phenyl]sulfonyl]amino]phenyl]-3,4,5-trifluorobenzenepropanoic Acid, Trifluoroacetate Salt]
IC50 [1]: 0.013 µM
IC50 [2]: 1.37 µM

N=C(N)c1cccc(C(=O)NCc2cccc(CCC(=O)O)c2)c1 [Example 23, 3-[[[[3-(aminoiminomethyl)phenyl]carbonyl]amino]methyl]benzenepropanoic acid, trifluoroacetate salt]
IC50 [1]: > 10 µM
IC50 [2]: 4.35 µM

N=C(N)Nc1cccc(C(=O)Nc2cccc(CCC(=O)O)c2)c1 [Example 36, 3-[[[3-[(aminoiminomethyl)amino]phenyl]carbonyl]amino]benzenepropanoic acid, trifluoroacetate salt]
IC50 [1]: 13.7 µM
IC50 [2]: 72.4 µM

O=C(O)COc1cccc(C(=O)/C=C/c2cccc(NC3=NCCN3)c2)c1 [Example 72, 2-[3-[3-[3-[(4,5-dihydro-1H-imidazol-2-yl)amino]phenyl]-1-oxo-2-propenyl]phenoxy]acetic acid, trifluoroacetate salt hydrate]
IC50 [1]: 0.168 µM
IC50 [2]: 8.1 µM

N=C(N)Nc1cc(C(=O)NCc2cccc(C(CC(=O)O)c3cc(F)cc(F)c3)c2)cc(C(F)(F)F)c1 (racemic) [Example 61, (±) β-[3-[[[[3-[(aminoiminomethyl)amino]-5-(trifluoromethyl)phenyl]carbonyl]amino]methyl]phenyl]-3,5-difluorobenzenepropanoic acid, trifluoroacetate salt hydrate]
IC50 [1]: 0.00133 µM
IC50 [2]: 0.712 µM
